# Experimental data published in PMC12687421, “Characterisation of an allosteric site in PLCγ enzymes and implications for development of their specific inhibitors” (Biochemical Journal, 2025).
# Columns and labels:
# PLCδ1^Δ44 = biological target: T1, PLCδ1^Δ44 (Homo sapiens, UniProt P51178, DEL445-487); experiment: IP-ONE assay in HEK stable cell line expressing PLCδ1^Δ44; type: cell-based
# T1 construct: Avi-tag (N); His-tag (N); expressed in transfected cells
# T1 sequence (P51178 with tags, fused parts or gaps DEL445-487): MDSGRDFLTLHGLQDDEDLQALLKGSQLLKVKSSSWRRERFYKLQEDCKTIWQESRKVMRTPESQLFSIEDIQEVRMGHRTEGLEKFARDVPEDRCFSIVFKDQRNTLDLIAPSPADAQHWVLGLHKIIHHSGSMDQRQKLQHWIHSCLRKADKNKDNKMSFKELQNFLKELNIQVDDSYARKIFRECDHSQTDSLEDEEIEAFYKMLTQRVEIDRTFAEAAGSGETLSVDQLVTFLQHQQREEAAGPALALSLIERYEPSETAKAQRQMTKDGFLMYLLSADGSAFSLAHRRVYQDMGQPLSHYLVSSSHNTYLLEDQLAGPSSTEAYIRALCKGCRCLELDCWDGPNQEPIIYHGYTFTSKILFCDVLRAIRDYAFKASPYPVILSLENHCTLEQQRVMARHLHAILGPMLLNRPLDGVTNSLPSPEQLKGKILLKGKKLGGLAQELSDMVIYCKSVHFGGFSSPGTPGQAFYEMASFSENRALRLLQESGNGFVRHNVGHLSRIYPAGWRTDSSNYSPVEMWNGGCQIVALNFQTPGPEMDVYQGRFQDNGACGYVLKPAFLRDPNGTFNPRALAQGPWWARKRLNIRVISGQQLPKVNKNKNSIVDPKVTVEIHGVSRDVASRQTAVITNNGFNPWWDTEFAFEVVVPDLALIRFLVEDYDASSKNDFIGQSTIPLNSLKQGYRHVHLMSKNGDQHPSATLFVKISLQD
# Source text: (§1) For generating HEK cell lines that stably express PLC variants, an in-house Gateway compatible, Lenti viral vector was generated using In-Fusion cloning (Takara Bio) following manufacturer’s protocols. The vector backbone consisted of pLenti PGK Puro DEST (Addgene 19068). A KOZAK sequence, Avi-tag and His-tag (KAH cassette) was inserted between the PGK promoter and the attR1 vector regions. An IRES2 EmGFP cassette was inserted between the attR2 and WPRE regions. Both cassettes were PCR amplified from vector pHR-CMV-TetO2_3C-Avi-His6_IRES-EmGFP (Addgene 113888). Finally, a BirA ORF was cloned in-frame upstream of the EmGFP, which would express as a BirA-EmGFP fusion protein. The resulting Gateway compatible destination vector was used in the LR reaction (Thermo Fisher) with pENTR207 clones containing the PLCγ1^S345F or an activated version of PLCδ1, where the amino acids 445–487 had been deleted (PLCδ1Δ^44), to generate their respective expression clones ready for preparing stable cell lines in HEK.
# (§2) Stable cell lines overexpressing PLCγ1^S345F or PLCδ1^Δ44 were prepared as described in [28]. […] Fluorescence-activated cell sorting (FACS) was used to select the top 10% of GFP-expressing cells. […]
# (§3) PLC activity in cell lines was measured using the IP-ONE assay according to the manufacturer’s instructions as described in [28]. […]
# PLCγ1^S345F [1] = biological target: T2, PLCγ1^S345F (Homo sapiens, UniProt P19174, S345F); experiment: IP-ONE assay in HEK stable cell line expressing PLCγ1^S345F; type: cell-based
# T2 construct: Avi-tag (N); His-tag (N); expressed in transfected cells
# T2 sequence (P19174 1-1290 S345F): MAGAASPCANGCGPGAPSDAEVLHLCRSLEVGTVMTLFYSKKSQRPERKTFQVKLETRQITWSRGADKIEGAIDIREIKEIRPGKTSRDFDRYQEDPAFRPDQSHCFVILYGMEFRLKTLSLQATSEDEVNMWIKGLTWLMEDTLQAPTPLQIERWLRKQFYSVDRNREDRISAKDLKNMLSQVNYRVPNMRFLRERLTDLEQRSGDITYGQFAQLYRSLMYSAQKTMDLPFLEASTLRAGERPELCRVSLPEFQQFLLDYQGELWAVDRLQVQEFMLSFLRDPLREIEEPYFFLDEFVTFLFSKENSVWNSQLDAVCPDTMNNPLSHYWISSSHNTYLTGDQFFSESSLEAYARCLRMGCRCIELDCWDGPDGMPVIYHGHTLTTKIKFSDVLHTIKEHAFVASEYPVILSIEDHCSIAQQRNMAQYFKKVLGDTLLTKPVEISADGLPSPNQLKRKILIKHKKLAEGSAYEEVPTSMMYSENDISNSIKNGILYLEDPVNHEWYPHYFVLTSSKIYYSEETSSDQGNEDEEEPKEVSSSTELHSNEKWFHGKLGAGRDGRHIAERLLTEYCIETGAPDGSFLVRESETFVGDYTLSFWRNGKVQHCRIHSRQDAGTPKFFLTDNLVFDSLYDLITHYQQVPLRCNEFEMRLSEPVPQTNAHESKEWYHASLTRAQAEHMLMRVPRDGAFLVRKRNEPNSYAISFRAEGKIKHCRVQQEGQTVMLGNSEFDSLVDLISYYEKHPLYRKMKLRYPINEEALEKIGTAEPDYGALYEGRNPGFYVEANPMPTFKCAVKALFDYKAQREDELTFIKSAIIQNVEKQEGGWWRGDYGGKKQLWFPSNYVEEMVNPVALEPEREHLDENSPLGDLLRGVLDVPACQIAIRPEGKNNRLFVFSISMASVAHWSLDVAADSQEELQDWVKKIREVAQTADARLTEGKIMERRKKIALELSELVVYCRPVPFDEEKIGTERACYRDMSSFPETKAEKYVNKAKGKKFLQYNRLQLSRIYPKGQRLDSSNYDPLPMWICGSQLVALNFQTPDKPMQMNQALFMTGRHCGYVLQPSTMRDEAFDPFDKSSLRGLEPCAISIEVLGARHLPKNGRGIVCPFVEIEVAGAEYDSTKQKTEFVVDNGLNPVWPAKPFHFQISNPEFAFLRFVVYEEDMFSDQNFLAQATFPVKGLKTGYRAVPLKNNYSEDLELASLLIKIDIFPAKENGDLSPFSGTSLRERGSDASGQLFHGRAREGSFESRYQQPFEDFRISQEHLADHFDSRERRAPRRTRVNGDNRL
# Source text: as §1, §2, §3
# PLCγ1^S345F [2] = biological target: T3, PLCγ1^S345F (Homo sapiens, UniProt P19174, I813T/S345F); experiment: Fluorescence polarisation competition with TNP-ATP; type: binding; conditions: fixed TNP-ATP
# T3 construct: His-tag (N); Myc-tag (C); made in house; host or cells: Escherichia coli T7 Express lysY/Iq
# T3 sequence (P19174 1-1291 isoform P19174-2 S345F/I813T): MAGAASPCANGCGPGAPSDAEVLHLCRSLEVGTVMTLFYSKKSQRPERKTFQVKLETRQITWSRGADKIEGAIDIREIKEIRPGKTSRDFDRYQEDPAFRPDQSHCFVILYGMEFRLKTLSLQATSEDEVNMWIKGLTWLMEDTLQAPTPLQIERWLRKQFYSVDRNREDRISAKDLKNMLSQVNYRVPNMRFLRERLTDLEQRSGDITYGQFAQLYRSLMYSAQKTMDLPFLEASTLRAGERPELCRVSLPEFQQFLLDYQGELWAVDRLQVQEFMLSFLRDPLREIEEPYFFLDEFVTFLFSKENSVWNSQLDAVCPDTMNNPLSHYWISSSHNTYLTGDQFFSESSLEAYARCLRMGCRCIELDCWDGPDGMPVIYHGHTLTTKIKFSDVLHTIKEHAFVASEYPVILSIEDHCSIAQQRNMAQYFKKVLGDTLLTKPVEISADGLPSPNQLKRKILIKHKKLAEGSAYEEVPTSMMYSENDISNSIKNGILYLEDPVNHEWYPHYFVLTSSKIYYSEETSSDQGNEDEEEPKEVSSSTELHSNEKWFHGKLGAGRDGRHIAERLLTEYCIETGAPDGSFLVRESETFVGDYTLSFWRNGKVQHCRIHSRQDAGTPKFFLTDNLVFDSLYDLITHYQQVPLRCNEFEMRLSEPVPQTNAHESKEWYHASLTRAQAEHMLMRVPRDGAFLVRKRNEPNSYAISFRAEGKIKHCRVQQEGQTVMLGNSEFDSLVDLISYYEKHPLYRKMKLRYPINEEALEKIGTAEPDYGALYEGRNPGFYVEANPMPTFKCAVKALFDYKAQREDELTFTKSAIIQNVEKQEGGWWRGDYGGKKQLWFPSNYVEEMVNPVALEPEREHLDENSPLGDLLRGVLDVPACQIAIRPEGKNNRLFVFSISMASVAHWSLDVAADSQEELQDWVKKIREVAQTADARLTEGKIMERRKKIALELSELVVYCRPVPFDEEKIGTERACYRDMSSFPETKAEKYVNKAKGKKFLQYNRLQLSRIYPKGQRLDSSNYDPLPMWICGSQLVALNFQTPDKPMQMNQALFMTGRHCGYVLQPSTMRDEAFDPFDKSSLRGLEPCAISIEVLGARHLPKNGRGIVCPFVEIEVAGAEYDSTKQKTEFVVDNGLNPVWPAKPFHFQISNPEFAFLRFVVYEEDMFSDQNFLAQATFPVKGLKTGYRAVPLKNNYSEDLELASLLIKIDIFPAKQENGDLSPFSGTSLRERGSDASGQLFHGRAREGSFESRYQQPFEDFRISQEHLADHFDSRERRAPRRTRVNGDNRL
# Method: Experiments were performed in black small volume 384-well plates (Greiner) on a Pherastar FS microplate reader (BMG Labtech) utilising an FP module with Excitation 485 nm and Emission 520 nm. […] PLCγ1^S345F protein was titrated against the fixed concentration of TNP-ATP and the FP data fit in GraphPad Prism using the One site Total binding model. […] Equal amounts of DMSO only were added in a parallel FP experiment. Generated data was also fit in GraphPad Prism using the One site -Total binding model. Each experiment was performed in triplicate and the data presented as the mean and SD.
# CD95–PLCγ1 interaction = tested on: CD95–PLCγ1 interaction; set-up: method as in PMID 30429604, PMID 31548507; conditions: cited from earlier work
# disease mouse model = tested on: disease mouse model; set-up: method as in PMID 30429604, PMID 31548507; conditions: cited from earlier work
smiles,measurement,setting,value
CC(=O)OC[C@H]1O[C@@H](n2ncc(=O)[nH]c2=O)[C@H](OC(C)=O)[C@@H]1OC(C)=O [Azaribine],effect on PLC activity of PLCδ1 in stable cell line,PLCδ1^Δ44,no effect
same,"IC50, PLC activity (IP1) in stable cell line",PLCδ1^Δ44; PLCδ1 Δ44,no inhibition
same,inhibition of PLC activity of PLCγ1^S345F in cell-based assay,PLCγ1^S345F [1],potently inhibited
same,IC50,"PLCγ1^S345F [1]; PLCγ1 S345F, read-out: IC50, PLC activity (IP1) in stable cell line",1.6 µM
O=P(O)(O)CP(=O)(O)OC[C@H]1O[C@@H](n2cnc3c(NCc4ccccc4)ncnc32)[C@H](O)[C@@H]1O [PSB 12379],competition with binding of fluorescently labelled ATP analogue (TNP-ATP),PLCγ1^S345F [2],competed
CC(C)c1nc(CN(C)C(=O)N[C@H](C(=O)N[C@@H](Cc2ccccc2)C[C@H](O)[C@H](Cc2ccccc2)NC(=O)OCc2cncs2)C(C)C)cs1 [ritonavir],CD95–PLCγ1 interaction,CD95–PLCγ1 interaction,disrupt
same,clinical symptoms in a disease mouse model,disease mouse model,alleviating clinical symptoms
